Results published in US10172907B2, “Compositions comprising β-arrestin 1 and methods of use thereof for therapeutic modulation of aldosterone levels in heart disease” (NOVA SOUTHEASTERN UNIVERSITY, priority 2010, dated 2019).
pEC50: −log10 of the molar value. “Also recorded” adds a separate entry of the source. Non-standard residues stand in square brackets, D forms with d. Residues, ends and D or L forms follow the SMILES beside them. Sar = CNCC(=O)O

Tests used:
[1] = system: adrenal βarr1-overexpressing post-MI rats; assay: Echocardiography (ejection fraction) of adrenal βarr1-overexpressing post-MI rats treated with sartans and CORET; format: in vivo, rat; conditions: for cardiac ejection fraction (EF): adrenal βarr1-overexpressing post-MI rats, 7-day treatment, saline-treated 35±0.3%; for ejection fraction (EF %) vs. Saline, in words: 3-week post-MI rats, 7 days post Adβarr1 gene transfer and concomitant treatment
Method: (§1) In vivo studies: For the in vivo studies, post-MI rats overexpressing Purl in their adrenals received 7-day-long treatments with the agents of interest.
(§2) Aldosterone measurements: Plasma aldosterone and in vitro aldosterone secretion in the supernatant of cultured H295R cells were determined by ELISA with the Aldosterone EIA kit from ALPCO Diagnostics, Salem, N.H. (Lymperopoulos A. et al. Proc. Natl. Acad. Sci. USA 106:5825-5830 2009). In vivo adrenal gene deliveries: Adrenal-specific in vivo gene delivery in rats was performed as previously described in Lymperopoulos A. et al. Proc. Natl. Acad. Sci. USA 106:5825-5830 2009). Echocardiographic and hemodynamic measurements: Two-dimensional guided M-mode and Doppler echocardiography and closed chest cardiac catheterization were performed as described in Lymperopoulos, A. et al. Nat. Med. 13:315-323 2007. Statistical analysis: Data are presented as mean±SEM. One- or two-way ANOVA with Bonferroni test was used for analysis of numeric parameters and differences were considered significant at p<0.05. Experimental Results
(§3) Statistical analysis: p<0.05, vs. Saline, ^, p<0.05, vs. CORET (SEQ ID NO:4) or IRB, n=6 rats/group.

[2] = system: adrenal βarr1-overexpressing post-MI rats; assay: In vivo hemodynamic analysis (cardiac contractility) of adrenal βarr1-overexpressing post-MI rats treated with sartans and CORET; set-up: species or system rat; conditions: vs. Saline
Method: as §1, §2, §3

[3] = biological target: T1, AT1R (Homo sapiens, UniProt P30556); assay: Activation of βarr2 by human AT1R in vitro by AngII peptide analogs (FIGS. 1B-C); format: cell-based; conditions: for pEC50: in vitro
T1 sequence (P30556 1-359): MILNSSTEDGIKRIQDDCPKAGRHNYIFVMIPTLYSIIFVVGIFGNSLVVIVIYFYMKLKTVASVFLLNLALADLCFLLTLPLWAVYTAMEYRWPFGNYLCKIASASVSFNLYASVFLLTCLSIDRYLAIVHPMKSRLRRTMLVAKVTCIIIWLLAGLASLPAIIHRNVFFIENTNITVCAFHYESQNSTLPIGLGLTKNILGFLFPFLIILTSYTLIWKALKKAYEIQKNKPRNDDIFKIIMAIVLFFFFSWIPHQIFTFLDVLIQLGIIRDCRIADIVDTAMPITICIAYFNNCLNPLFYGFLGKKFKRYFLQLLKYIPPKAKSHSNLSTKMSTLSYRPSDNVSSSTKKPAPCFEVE

[4] = system: H295R cells; assay: In vitro βarr1-dependent SII-induced aldosterone secretion in H295R cells (ELISA); format: cell-based, human; conditions: H295R cells transfected with Adβarr1, stimulated with 1 mM SII, standard doses of agents; p<0.05 vs. SII
Method: as §2
Of note, when endogenous Purl is inhibited, no effects by drugs and peptides on SII-induced aldosterone secretion are seen (data not shown), as expected, since SII is a “biased” βarr-only agonist (Luttrell, L. M. et al. Pharmacol. Rev. 62:305-330 2010; Rajagopal, S. et al. Nat. Rev. Drug Discov. 9:373-386 2010; Kenakin, T. et al. Pharmacol. Rev. 62:265-304 2010). Statistical analysis: <0.05, vs. SII, n=3 independent experiments.

[5] = system: adrenal βarr1-overexpressing post-MI rats; assay: Plasma aldosterone in adrenal βarr1-overexpressing post-MI rats treated with sartans and CORET; format: in vivo, rat; conditions: 3-week post-MI rats, 7 days post Adβarr1 adrenal gene transfer, 7-day treatment
Method: as §1, §2
Statistical analysis: p<0.05, vs. Saline, n=6 rats/group.

[6] = biological target: T1, AT1R; assay: Biased antagonism of sartans for AT1R-stimulated βarr vs. G-protein-mediated signaling (FIG. 6); conditions: both IC50 in nM; <1 biased for βarr antagonism, >1 biased towards G-protein antagonism
Description: This ranking was derived from the ratios of individual IC50 for AT1R-βarr antagonism to IC50 for G-protein antagonism (both in nM) for each sartan.

[7] = biological target: T1, AT1R; assay: Inhibition of SII-induced activation of βarr2 by human AT1R in vitro (FIG. 1A); conditions: % normalized signal
[8] = system: post-MI rat hearts; assay: Masson-trichrome staining for cardiac fibrosis in post-MI rats; format: in vivo; conditions: 7 days concomitant drug vs. vehicle (saline)
Method: (§4) In vivo adrenal gene delivery in post-myocardial infarction (MI) rats: All animal procedures and experiments were performed in accordance with the guidelines of the IACUC committees of Thomas Jefferson and Nova Southeastern Universities. MI was performed using a known cryo-infarct method (Lymperopoulos, A. et al. Nat. Med. 13:315-323 2007). Adrenal-specific in vivo gene delivery was done essentially as described in Lymperopoulos, A. et al. (Mol. Ther. 16:302-307 2008) via direct delivery of adenovirus in the adrenal gland. […] Construction and purification of adenovirus: Recombinant adenovirus that encode full length wild-type βarr1 (Adβarr1; SEQ ID NO:1) or a rat βarr1 C-terminal fragment (Adβarr-1ct) (SEQ ID NO:3, amino acid residues 369-418 of the C-terminal of rat βarr-1 (SEQ ID NO:2); see FIG. 7A) were constructed as described in Lymperopoulos A. et al. Proc. Nati. Acad. Sci. USA 106:5825-5830 2009 and Lymperopoulos, A. et al. Nat. Med. 13:315-323 2007. […] Plasma aldosterone measurements: Rat plasma aldosterone levels were determined by EIA (Aldosterone EIA Kit, ALPCO Diagnostics, Salem, N.H., USA) as described in Lymperopoulos A. et al. Proc. Natl. Acad. Sci. USA 106:5825-5830 2009 and Mihailidou et al. Hypertension 40:124-129 2002. […]

[9] = system: post-MI rats; assay: Plasma aldosterone (EIA) after adrenal gene delivery in post-MI rats; format: in vivo, rat
Method: In vivo adrenal gene delivery in post-myocardial infarction (MI) rats: All animal procedures and experiments were performed in accordance with the guidelines of the IACUC committees of Thomas Jefferson and Nova Southeastern Universities. MI was performed using a known cryo-infarct method (Lymperopoulos, A. et al. Nat. Med. 13:315-323 2007). Adrenal-specific in vivo gene delivery was done essentially as described in Lymperopoulos, A. et al. (Mol. Ther. 16:302-307 2008) via direct delivery of adenovirus in the adrenal gland. […] Construction and purification of adenovirus: Recombinant adenovirus that encode full length wild-type βarr1 (Adβarr1; SEQ ID NO:1) or a rat βarr1 C-terminal fragment (Adβarr-1ct) (SEQ ID NO:3, amino acid residues 369-418 of the C-terminal of rat βarr-1 (SEQ ID NO:2); see FIG. 7A) were constructed as described in Lymperopoulos A. et al. Proc. Nati. Acad. Sci. USA 106:5825-5830 2009 and Lymperopoulos, A. et al. Nat. Med. 13:315-323 2007. […] The black box highlights the clathrin- and AP-2 adaptin-binding domains, which are necessary for the receptor internalizing and signaling functions of βarr1 (Ferguson, S. S. Pharmacol Rev 53:1-24 2001) Transgenes were cloned into shuttle vector pAdTrack-CMV, which harbors a CMV-driven green fluorescent protein (GFP), to form the viral constructs by using standard cloning protocols. As control adenovirus, empty vector which expressed only GFP (AdGFP) was used. The resultant adenovirus were purified using two sequential rounds of CsCl density gradient ultracentrifugation as described in Lymperopoulos A. et al. Proc. Natl. Acad. Sci. USA 106:5825-5830 2009 and Lymperopoulos, A. et al. Nat. Med. 13:315-323 2007. Plasma aldosterone measurements: Rat plasma aldosterone levels were determined by EIA (Aldosterone EIA Kit, ALPCO Diagnostics, Salem, N.H., USA) as described in Lymperopoulos A. et al. Proc. Natl. Acad. Sci. USA 106:5825-5830 2009 and Mihailidou et al. Hypertension 40:124-129 2002. Echocardiographic and hemodynamic measurements: Two-dimensional guided M-mode and Doppler echocardiography using a 14-Mhz transducer (Vevo 770 Echograph, VisualSonic Inc., Toronto, Ontario, Canada) and closed chest cardiac catheterization were performed in rats as described in Lymperopoulos, A. et al. Nat. Med. 13:315-323 2007 and Rengo, G. et al. Circulation 119:89-98 2009. Three independent echocardiographic measurements were taken in both modes. […]

[10] = system: post-MI rats; assay: Echocardiographic parameters after adrenal gene delivery in post-MI rats; format: in vivo, rat; conditions: Adβarr1 post-MI rats
Method: as §4

## CCOc1nc2cccc(C(=O)O)c2n1Cc1ccc(-c2ccccc2-c2nnn[nH]2)cc1 [CAN, Candesartan]
[1]
  cardiac ejection fraction (EF): 41.1±1%

## CCSC[C@H](NC(=O)[C@H](Cc1ccc(O)cc1)NC(=O)[C@@H](NC(=O)[C@H](CCCNC(=N)N)NC(=O)CNC)C(C)C)C(=O)N[C@@H](Cc1c[nH]cn1)C(=O)N1CCC[C@H]1C(=O)N[C@@H](CC(C)C)C(=O)O [CORET, Sar^1,Cys(Et)^5,Leu^8-AngII] (H-[Sar]RVYC(Et)HPL-OH; N-terminus and C-terminus assumed)
[2]
  myocardial systolic function in response to maximal dose of Isoproterenol (Max. Iso): severely impaired myocardial systolic function
[1]
  ejection fraction (EF %) vs. Saline, in words: further worsened cardiac function
[3]
  pEC50: 9.00
[3]; ratio of EC50s
  times less potent than AngII for βarr activation by the AT1R: 10 times
[4]
  SII-induced aldosterone secretion: can enhance; also recorded: far greater aldosterone secretion in vitro than SII
[5]
  plasma aldosterone levels vs. Saline: an increase; also recorded: significantly worsens hyperaldosteronism

## CCCCC1=NC2(CCCC2)C(=O)N1Cc1ccc(-c2ccccc2-c2nnn[nH]2)cc1 [IRB, Irbesartan]
[2]
  myocardial systolic function in response to maximal dose of Isoproterenol (Max. Iso): severely impaired myocardial systolic function
[6]
  ratio of IC50 for AT1R-βarr antagonism to IC50 for G-protein antagonism: 1.05
[1]
  ejection fraction (EF %) vs. Saline, in words: further worsened cardiac function
  cardiac ejection fraction (EF): 32±1%
[5]
  plasma aldosterone levels vs. Saline: unable to counter the adrenal βarr1-mediated hyperaldosteronism
[7]
  relative potency for inhibition of SII-induced activation of βarr2 by human AT1R: the least potent βarr inhibitors

## CCCCc1nc(Cl)c(CO)n1Cc1ccc(-c2ccccc2-c2nn[nH]n2)cc1 [LOS, Losartan]
[8]
  cardiac fibrosis in Adβarr1-adrenal treated rat hearts under drug treatment: incapable of reducing the cardiac fibrosis
[9]; losartan 50 mg/kg/day for 7 days post-gene delivery
  plasma aldosterone reduction by losartan in Adβarr1ct-treated post-MI rats: no significant aldosterone reduction
[9]; losartan 50 mg/kg/day for 7 days post-gene delivery, saline-treated 470±20
  plasma aldosterone, losartan-treated control AdGFP post-MI rats: 402 ± 10 pg/mL
[9]; losartan 50 mg/kg/day for 7 days post-gene delivery, saline-treated 845±150, not significant
  plasma aldosterone, losartan-treated Adβarr1 post-MI rats: 880 ± 88 pg/mL

## CC[C@H](C)[C@H](NC(=O)[C@@H]1CCCN1C(=O)[C@H](Cc1c[nH]cn1)NC(=O)[C@@H](NC(=O)[C@@H](NC(=O)[C@@H](NC(=O)[C@H](CCCNC(=N)N)NC(=O)CNC)C(C)C)[C@@H](C)CC)[C@@H](C)CC)C(=O)O [SII, Sar^1,Ile^4,Ile^8-AngII]
[3]
  pEC50: 7.95

## CCCCC(=O)N(Cc1ccc(-c2ccccc2-c2nnn[nH]2)cc1)[C@H](C(=O)O)C(C)C [VAL, Valsartan]
[2]
  myocardial systolic function in response to maximal dose of Isoproterenol (Max. Iso): significantly improves it
[1]
  ejection fraction (EF %) vs. Saline, in words: significantly improved
  cardiac ejection fraction (EF): 40±1%
[4]
  SII-induced aldosterone secretion: can inhibit
[5]
  plasma aldosterone levels vs. Saline: profound decreases
[5]; listed as valsartan
  plasma aldosterone levels vs. Saline: significant plasma aldosterone reductions

## COC(=O)[C@@H]1CC2=CC(=O)CC[C@]2(C)[C@@]23O[C@@H]2C[C@@]2(C)[C@@H](CC[C@@]24CCC(=O)O4)[C@H]13 [eplerenone]
[10]; eplerenone 100 mg/kg/d for 7 days
  EF reduction and LVEDD increase induced by adrenal βarr1 overexpression: prevented
[10]; eplerenone low dose 5 mg/kg/d, data not shown
  effects of adrenal βarr1 overexpression (EF, LVEDD): prevented
[8]
  cardiac fibrosis in Adβarr1-adrenal treated rat hearts under drug treatment: markedly reduced fibrosis
[9]; Adβarr1 post-MI rats, 100 mg/kg/day eplerenone for 7 days
  effect on plasma aldosterone increase caused by Adβarr1 treatment: no effect
